Numbers after ± are expanded uncertainties.
How the values were obtained:
[1] = Liquid; for mass density: 298.15 K, 101.33 kPa, Vibrating tube method; for vapor or sublimation pressure: Ebulliometric method (Recirculating still)
[2] = refractive index (Na D-line) (dimensionless); conditions: 298.15 K; 101.33 kPa; Liquid; Standard Abbe refractometry

SMILES | mass density [1] [kg/m3] | vapor or sublimation pressure ([1]; 399.6 K) [kPa] | refractive index [2] | vapor or sublimation pressure ([1]; 362.5 K) [kPa] | vapor or sublimation pressure ([1]; 337.5 K) [kPa] | vapor or sublimation pressure ([1]; 330.2 K) [kPa] | vapor or sublimation pressure ([1]; 421.6 K) [kPa] | vapor or sublimation pressure ([1]; 373.8 K) [kPa]
CCOC(=O)OCC [diethyl carbonate] | 969.4 ± 0.2 | 100.17 ± 2 | 1.3821 ± 0.0004 |  |  |  |  | 
COC(=O)OC [dimethyl carbonate] | 1062.7 ± 0.2 |  | 1.3664 ± 0.0004 | 100.17 ± 2 |  |  |  | 
CO [methanol] | 787.7 ± 0.2 |  | 1.3275 ± 0.0004 |  | 100.17 ± 2 |  |  | 
COC(C)=O [methyl ethanoate] | 927.4 ± 0.2 |  | 1.3587 ± 0.0004 |  |  | 100.17 ± 2 |  | 
CCCCCOC(C)=O [pentyl ethanoate] | 872.3 ± 0.2 |  | 1.3999 ± 0.0004 |  |  |  | 100.17 ± 2 | 
CCCOC(C)=O [propyl ethanoate] | 882.9 ± 0.2 |  | 1.3815 ± 0.0004 |  |  |  |  | 100.17 ± 2

— the NIST ThermoML archive (doi:10.1021/acs.jced.9b00068)
